The values that follow come from article PMC7316994, “In Vitro Pharmacological Profile of a New Small Molecule Bradykinin B2 Receptor Antagonist” (Frontiers in Pharmacology, 2020).

Assay [1] deals with T1, Orexin OX1 (Homo sapiens, UniProt O43613).
T1 construct: host or cells: CHO cells
In words: radioligand binding (Table S2). The note with it: [125I] Orexin A, Human recombinant CHO cells.

Assay [2] deals with T2, Acetylcholinesterase (Homo sapiens, UniProt P22303).
T2 construct: Eurofins (assay provider); host or cells: HEK-293 cells
The experiment in a line: enzyme assay (Table S2). The class given is biochemical. The conditions noted are these: Acetylthiocholine (400 µM), Photometry.

Assay [3] addresses PDE3A (Homo sapiens, UniProt Q14432). The experiment in a line: enzyme assay (Table S2). The class given is biochemical. The note with it: [3H]cAMP + cAMP (0.5 µM), Scintillation counting.
Assay [4] deals with Adrenergic β2 (Homo sapiens, UniProt P07550). In words: radioligand binding (Table S2). The conditions noted are these: read-out: % Inhibition @ 10 µM.
The target of assay [5] is T3, Norepinephrine transporter (Homo sapiens, UniProt P23975).
T3 construct: host or cells: CHO cells
The experiment in a line: radioligand binding (Table S2). The note with it: [3H] Nisoxetine, Human recombinant CHO cells.

The target of assay [6] is T4, 5-HT2A receptor (Homo sapiens, UniProt P28223).
T4 construct: other endogenously expressed receptors in the human umbilical vein; from tissue; host or cells: human umbilical vein rings
In words: umbilical vein, serotonin-induced contraction. The note with it: Compound 2 10 μM; Compound 3 1 μM. An excerpt: The local ethics committee (CHU de Québec-Université Laval) had approved the project (File no. 2017-3720). Umbilical cords were obtained following elective caesarean sections; all problematic deliveries are excluded. Informed consent was obtained from the mothers. The cords were transported from the maternity ward to the laboratory in sterile Hank's balanced salt solution containing penicillin and streptomycin. Segments of umbilical veins were dissected carefully from the cords and a metal rod was inserted in the lumen. Excess connective tissue was excised and rings (2–3 mm wide) were cut. Rings of umbilical veins were suspended in 5-mL organ chambers containing oxygenated (95% O2, 5% CO2) and warmed (37°C) Krebs' solution between a metal hook and a thread loop. This solution had the following composition: NaCl 117.5 mM, KCl 4.7 mM, KH2PO4 1.2 mM, MgSO4 1.18 mM, CaCI2 2.5 mM, NaHCO3 25.0 mM, and D-glucose 5.5 mM. A baseline of one gram-weight was applied to these preparations. Changes of tension were recorded by using isometric transducers (model 52-9545, Harvard Bioscience, South Natick MA). Eight tissue baths are operated in parallel.
For this purpose, contractile responses to serotonin, acting on the 5-HT2A receptor, and U-46619, acting at the prostanoid TP receptor, were measured ([Rogines-Velo et al., 2002]; [Daray et al., 2003]).

In assay [7] the target is T5, Neurokinin NK3 (Homo sapiens, UniProt P29371).
T5 construct: host or cells: CHO cells
T5 sequence (P29371 1-465): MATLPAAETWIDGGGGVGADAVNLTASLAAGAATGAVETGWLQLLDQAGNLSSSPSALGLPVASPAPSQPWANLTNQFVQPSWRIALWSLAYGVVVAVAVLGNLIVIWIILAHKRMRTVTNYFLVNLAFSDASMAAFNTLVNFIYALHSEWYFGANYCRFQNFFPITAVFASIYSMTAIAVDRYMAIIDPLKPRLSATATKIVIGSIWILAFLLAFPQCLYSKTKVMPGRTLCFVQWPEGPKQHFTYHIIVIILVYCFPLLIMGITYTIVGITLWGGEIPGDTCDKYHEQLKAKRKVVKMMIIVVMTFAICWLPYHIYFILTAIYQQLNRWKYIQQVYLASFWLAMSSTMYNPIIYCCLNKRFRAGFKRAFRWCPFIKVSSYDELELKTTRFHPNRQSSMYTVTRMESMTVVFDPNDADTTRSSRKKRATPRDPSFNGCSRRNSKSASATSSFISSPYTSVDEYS
In words: functional assay, intracellular [Ca2+], CHO cells (Table S2). The class given is cell-based.

For assay [8], the target named is Adrenergic β1 (Homo sapiens, UniProt P08588). The experiment in a line: radioligand binding (Table S2). The conditions noted are these: read-out: % Inhibition @ 10 µM.
Assay [9] has as its target T6, Adenosine A3 (Homo sapiens, UniProt P0DMS8).
T6 sequence (P0DMS8 1-318): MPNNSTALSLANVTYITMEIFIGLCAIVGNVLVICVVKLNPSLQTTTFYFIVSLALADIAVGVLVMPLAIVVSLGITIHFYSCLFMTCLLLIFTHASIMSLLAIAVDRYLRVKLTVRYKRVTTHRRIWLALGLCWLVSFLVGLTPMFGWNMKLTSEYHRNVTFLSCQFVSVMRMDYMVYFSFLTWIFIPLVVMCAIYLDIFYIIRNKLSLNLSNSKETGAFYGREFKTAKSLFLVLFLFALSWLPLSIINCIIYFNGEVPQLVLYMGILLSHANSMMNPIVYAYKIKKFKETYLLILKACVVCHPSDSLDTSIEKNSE
In words: radioligand binding (Table S2). The conditions noted are these: [125I] AB-MECA, Human recombinant HEK-293 cells.

Assay [10] deals with T7, Histamine H3 (Homo sapiens, UniProt Q9Y5N1).
T7 construct: host or cells: CHO cells
In words: radioligand binding (Table S2). The note with it: [3H] Nα-Me-histamine, Human recombinant CHO cells.

Assay [11] deals with Cholecystokinin CCK2 (CCKB) (Homo sapiens, UniProt P32239). In words: radioligand binding (Table S2). The note with it: [125I] CCK-8, Human recombinant Chem-1 cells.
Assay [12] concerns the target PDE5 (non-selective) (Homo sapiens, UniProt O76074). The experiment in a line: enzyme assay (Table S2). The class given is biochemical. The note with it: Human platelets, [3H]cGMP + cGMP (1 µM).
The target of assay [13] is T8, Neuropeptide Y2 (Homo sapiens, UniProt P49146).
T8 construct: KAN-TYS cells; host or cells: KAN-TYS cells
In words: radioligand binding (Table S2). The note with it: [125I] Peptide YY, KAN-TYS cells.

Assay [14] deals with T9, Vasopressin V1a (Homo sapiens, UniProt P37288).
T9 construct: host or cells: CHO cells
The experiment in a line: functional assay, intracellular [Ca2+], CHO cells (Table S2). Format: cell-based. The conditions noted are these: AVP (10 nM).

In assay [15] the target is T10, PKCε (Homo sapiens, UniProt Q02156).
T10 construct: host or cells: insect cells
The experiment in a line: enzyme assay (Table S2). Format: biochemical. The note with it: HTRF. Background: Time-resolved FRET reads energy transfer from a long-lived donor to a nearby acceptor.

The target in assay [16] is Adrenergic α2A (Homo sapiens, UniProt P08913). In words: radioligand binding (Table S2). The conditions noted are these: read-out: % Inhibition @ 10 µM.
The test system of assay [17] is Chloride Cl- channel (GABA-gated). The experiment in a line: radioligand binding (Table S2). The note with it: [35S] TBPS, Rat cerebral cortex.
Assay [18] addresses T11, Dopamine D2S (Homo sapiens, UniProt P14416).
T11 construct: host or cells: HEK-293 cells
The experiment in a line: radioligand binding (Table S2). The conditions noted are these: [3H] 7-OH-DPAT, Human recombinant HEK-293 cells.

Each structure is given as a SMILES string.

T9 sequence (P37288 whole entry): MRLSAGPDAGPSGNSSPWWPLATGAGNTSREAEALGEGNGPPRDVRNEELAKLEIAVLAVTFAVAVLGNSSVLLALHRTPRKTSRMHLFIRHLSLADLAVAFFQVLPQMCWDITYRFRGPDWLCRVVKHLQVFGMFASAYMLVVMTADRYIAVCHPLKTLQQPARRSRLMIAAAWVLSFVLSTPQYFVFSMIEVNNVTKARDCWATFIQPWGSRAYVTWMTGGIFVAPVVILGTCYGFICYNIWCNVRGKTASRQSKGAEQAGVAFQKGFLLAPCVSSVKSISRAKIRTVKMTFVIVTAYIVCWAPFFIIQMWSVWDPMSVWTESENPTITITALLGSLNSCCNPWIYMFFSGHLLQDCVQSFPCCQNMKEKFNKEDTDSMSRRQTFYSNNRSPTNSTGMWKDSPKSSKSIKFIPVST
T10 sequence (Q02156 whole entry): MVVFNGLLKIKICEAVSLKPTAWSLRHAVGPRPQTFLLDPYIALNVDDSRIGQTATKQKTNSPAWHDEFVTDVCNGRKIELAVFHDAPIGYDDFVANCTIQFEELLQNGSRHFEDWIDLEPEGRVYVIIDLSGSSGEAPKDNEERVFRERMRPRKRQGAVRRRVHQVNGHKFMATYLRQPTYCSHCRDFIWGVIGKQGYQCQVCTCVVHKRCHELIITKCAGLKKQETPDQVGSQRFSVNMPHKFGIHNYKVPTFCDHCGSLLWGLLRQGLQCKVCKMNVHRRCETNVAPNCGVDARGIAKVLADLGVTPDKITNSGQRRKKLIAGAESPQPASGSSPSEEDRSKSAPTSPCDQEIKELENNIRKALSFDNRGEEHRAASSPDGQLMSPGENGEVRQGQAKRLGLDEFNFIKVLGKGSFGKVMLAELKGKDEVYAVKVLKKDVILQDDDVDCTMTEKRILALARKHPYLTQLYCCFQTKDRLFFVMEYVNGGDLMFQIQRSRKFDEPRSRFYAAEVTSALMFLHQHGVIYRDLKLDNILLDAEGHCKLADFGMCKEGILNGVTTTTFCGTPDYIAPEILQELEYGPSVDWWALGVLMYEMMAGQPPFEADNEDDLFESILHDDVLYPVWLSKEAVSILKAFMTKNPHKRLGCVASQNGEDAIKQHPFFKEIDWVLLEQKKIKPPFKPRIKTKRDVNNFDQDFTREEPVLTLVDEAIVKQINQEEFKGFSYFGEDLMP
T11 sequence (P14416 1-414 isoform P14416-2): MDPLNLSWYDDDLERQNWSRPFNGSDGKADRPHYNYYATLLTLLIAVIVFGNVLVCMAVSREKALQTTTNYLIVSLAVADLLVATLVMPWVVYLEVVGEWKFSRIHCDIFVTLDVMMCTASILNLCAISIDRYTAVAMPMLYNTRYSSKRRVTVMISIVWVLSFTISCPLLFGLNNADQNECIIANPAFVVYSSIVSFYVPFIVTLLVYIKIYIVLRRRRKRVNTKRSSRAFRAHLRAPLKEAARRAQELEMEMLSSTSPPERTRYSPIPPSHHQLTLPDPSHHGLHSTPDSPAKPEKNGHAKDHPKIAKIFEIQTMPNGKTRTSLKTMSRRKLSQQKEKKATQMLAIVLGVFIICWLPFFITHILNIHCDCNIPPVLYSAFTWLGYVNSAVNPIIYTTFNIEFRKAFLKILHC
Cholecystokinin CCK2 (CCKB), sequence (P32239 whole entry): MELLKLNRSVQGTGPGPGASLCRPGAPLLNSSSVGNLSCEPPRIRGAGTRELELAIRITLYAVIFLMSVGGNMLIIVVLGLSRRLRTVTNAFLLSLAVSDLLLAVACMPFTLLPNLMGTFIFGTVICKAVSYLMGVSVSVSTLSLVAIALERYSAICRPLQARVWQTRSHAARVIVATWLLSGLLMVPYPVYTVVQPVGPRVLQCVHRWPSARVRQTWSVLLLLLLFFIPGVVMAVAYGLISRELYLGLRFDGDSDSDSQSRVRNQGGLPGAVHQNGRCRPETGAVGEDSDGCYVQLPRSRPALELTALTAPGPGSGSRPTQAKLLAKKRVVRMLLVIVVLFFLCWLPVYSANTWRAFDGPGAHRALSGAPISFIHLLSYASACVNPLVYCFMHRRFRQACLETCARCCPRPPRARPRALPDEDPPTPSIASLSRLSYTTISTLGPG
T1 sequence (O43613 whole entry): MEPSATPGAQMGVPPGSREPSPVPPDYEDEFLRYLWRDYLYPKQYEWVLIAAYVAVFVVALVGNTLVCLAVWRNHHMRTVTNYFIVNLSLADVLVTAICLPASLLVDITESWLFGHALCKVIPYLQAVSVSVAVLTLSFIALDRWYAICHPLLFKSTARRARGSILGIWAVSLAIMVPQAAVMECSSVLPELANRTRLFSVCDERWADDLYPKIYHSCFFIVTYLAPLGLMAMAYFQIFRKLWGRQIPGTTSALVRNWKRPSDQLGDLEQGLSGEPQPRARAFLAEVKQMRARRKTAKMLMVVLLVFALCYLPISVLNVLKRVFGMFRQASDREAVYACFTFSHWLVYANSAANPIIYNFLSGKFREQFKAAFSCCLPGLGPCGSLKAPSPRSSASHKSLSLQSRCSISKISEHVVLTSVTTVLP
PDE3A, sequence (Q14432 whole entry): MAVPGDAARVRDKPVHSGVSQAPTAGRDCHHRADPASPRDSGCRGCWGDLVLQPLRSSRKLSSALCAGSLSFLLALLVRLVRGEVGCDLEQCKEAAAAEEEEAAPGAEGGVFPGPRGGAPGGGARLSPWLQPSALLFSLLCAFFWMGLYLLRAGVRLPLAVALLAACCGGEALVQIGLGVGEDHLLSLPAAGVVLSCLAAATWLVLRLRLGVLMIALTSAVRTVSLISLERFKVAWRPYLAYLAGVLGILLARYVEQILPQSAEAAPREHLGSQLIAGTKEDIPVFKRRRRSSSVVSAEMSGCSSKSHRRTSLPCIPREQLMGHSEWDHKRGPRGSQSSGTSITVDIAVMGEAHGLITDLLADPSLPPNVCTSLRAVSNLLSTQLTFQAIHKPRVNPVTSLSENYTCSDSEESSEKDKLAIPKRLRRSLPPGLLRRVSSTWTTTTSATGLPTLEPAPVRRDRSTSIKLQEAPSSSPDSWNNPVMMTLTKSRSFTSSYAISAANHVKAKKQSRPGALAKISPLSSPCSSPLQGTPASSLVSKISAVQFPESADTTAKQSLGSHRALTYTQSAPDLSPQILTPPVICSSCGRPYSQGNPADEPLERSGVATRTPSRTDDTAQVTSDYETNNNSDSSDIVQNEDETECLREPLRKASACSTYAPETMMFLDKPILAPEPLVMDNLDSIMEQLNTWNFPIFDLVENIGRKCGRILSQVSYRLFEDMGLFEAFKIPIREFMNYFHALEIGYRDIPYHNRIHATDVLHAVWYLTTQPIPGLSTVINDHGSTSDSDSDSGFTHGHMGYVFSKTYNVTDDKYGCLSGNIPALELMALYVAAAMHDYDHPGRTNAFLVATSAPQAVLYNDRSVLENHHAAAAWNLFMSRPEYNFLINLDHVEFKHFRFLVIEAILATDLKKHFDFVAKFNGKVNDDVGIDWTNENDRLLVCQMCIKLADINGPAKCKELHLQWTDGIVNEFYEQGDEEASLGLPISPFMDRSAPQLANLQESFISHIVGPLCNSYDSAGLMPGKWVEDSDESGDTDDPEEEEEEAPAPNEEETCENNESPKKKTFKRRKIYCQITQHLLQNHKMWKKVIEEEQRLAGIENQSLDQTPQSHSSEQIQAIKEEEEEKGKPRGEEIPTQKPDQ
Adrenergic α2A, sequence (P08913 whole entry): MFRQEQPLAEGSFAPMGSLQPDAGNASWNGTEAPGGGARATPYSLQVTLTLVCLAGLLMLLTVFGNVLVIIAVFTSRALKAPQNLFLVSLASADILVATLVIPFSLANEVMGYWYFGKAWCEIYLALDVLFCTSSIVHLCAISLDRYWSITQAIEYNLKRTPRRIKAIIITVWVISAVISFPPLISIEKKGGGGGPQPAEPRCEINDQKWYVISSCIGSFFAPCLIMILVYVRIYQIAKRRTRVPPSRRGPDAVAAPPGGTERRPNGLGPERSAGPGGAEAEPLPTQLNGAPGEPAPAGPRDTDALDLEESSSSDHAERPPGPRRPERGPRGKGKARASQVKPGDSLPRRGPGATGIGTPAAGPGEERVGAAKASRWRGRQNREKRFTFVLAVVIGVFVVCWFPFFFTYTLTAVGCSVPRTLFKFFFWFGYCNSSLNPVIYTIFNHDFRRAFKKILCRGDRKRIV
T7 sequence (Q9Y5N1 whole entry): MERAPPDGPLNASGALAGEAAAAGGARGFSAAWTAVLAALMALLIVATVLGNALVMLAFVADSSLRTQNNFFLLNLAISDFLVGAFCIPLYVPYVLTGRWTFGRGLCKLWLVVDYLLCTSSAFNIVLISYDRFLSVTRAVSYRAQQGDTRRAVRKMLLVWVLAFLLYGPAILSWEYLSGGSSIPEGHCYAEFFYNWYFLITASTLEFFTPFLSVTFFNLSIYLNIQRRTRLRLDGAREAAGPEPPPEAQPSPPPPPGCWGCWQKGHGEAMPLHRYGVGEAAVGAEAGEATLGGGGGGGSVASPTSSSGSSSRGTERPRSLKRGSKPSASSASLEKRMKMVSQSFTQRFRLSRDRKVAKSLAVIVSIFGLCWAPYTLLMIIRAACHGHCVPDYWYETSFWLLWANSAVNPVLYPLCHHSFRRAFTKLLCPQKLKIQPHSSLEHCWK
T8 sequence (P49146 whole entry): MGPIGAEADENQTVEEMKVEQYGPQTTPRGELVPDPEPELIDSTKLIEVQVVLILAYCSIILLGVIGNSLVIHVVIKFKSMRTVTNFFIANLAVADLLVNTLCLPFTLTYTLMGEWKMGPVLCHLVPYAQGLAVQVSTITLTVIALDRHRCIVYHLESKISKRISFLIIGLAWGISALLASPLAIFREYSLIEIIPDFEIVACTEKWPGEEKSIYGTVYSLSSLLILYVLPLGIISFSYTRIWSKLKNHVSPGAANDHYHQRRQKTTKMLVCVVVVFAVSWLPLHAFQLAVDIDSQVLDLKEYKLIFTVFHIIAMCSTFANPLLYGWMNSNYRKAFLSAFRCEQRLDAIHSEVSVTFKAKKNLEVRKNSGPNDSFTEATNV

As usually defined, the inhibition is the change of the read-out against control, counted positive when it falls. As usually defined, the IC50 is the concentration needed to halve the response being measured. Broadly, the Kb is the affinity of an antagonist, worked out from how it opposes an agonist. In the case of `Cc1cc(-c2ncnn2C)c2cccc(OCc3c(Cl)cc(F)cc3[C@H](C)NC(=O)COC(F)F)c2n1` [Compound 3, (S)-N-(1-(3-chloro-5-fluoro-2-((2-methyl-4-(1-methyl-1H-1,2,4-triazol-5-yl)quinolin-8-yloxy)methyl)phenyl)ethyl)-2-(difluoromethoxy)acetamide], the inhibition at 10 µM in assay [1] came out at 7.1%; in assay [2] it was 8.4%; in [3], 15.9%; in assay [4] it was 3%; in assay [5], 0.9%; in assay [7] (CHO, read-out: % inhibition of reference agonist response @ 10 µM (antagonist effect), 10 µM, [MePhe7]-NKB (1 nM)), 40.8%. The inhibition at 10 µM was 0.3% in [8]; 39.8% in assay [9]; 6.2% in assay [10]; 1% in assay [11]; 15.5% in [12]; -19.1% in assay [13]. The inhibition at 10 µM in [14] (CHO, read-out: % inhibition of reference agonist response @ 10 µM (antagonist effect), 10 µM) was 51.9%; in assay [15], 6.8%; in assay [16], -1.7%; in assay [18], -2.7%. The “effect on serotonin-induced contraction” value in [6] is listed as “Lack of antagonist effect”. In addition, the “% of reference agonist response @ 10 µM (agonist effect)” value in assay [7] (10 µM, reference [MePhe7]-NKB (30 nM)) is 7.0%. The IC50 in [7] ([MePhe7]-NKB (1 nM), read-out: IC50 (µM), functional antagonism) came out at 17 µM; in assay [14] (read-out: IC50 (µM), functional antagonism), 9.1 µM. Besides, the Kb in [7] ([MePhe7]-NKB (1 nM), read-out: Kb (µM), functional antagonism) was found to be 1.6 µM; in assay [14] (read-out: Kb (µM), functional antagonism), 0.31 µM. Further, the “% Inhibition @ 10 µM” value in assay [17] was found to be 32.9%.
